Test systems include HCT-15; SW-620; NCI-H226; SK-MEL-2; SF-539; K562; KM12; RPMI-8226; SK-MEL-5; A549; HCT-116; SNB-19; SNB-75; OVCAR-5; HCC 2998; RXF 393.
What all share (experiment): DTP human tumour cell line panel, 48 h

Data on 14 compounds can be found in ChEMBL document CHEMBL1201862, “PubChem BioAssay data set” (2004).

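Cultured in 96-well plates, cells were exposed to test compound for 48 hours across five concentrations. GI50: concentration for 50% inhibition of growth.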 The source made the active and inactive calls. Cut-off read from the data, not from the text of the source: active = GI50 up to about 1.1 µM and inactive = higher.

A word on the GI50: it is the concentration that inhibits growth by half.

Regarding `O=C(O)/C=C\C(=O)Nc1ccc(S(=O)(=O)c2ccc(NC(=O)/C=C\C(=O)O)cc2)cc1`, the 50% growth inhibitory concentration (GI50) in the assay on HCT-15 is over 100 µM; with SW-620, > 100 µM (inactive); with NCI-H226, > 100 µM (inactive); in the assay on SK-MEL-2 it was > 100 µM (inactive); in the assay with SF-539, > 100 µM (inactive); in the assay with K562, > 100 µM (inactive). Besides, the GI50 with KM12, in the assay on RPMI-8226, in the assay on SK-MEL-5, with A549, with HCT-116 and in the assay with SNB-19 was > 100 µM (inactive) each time. The GI50 with SNB-75 and in the assay with OVCAR-5 was > 100 µM (inactive) throughout.
Turning to `c1cc(-c2cn3ccsc3n2)ccn1`, the 50% growth inhibitory concentration (GI50) in the assay on HCT-15 was over 44.2 µM; in the assay on SW-620, > 43.1 µM (inactive); in the assay with NCI-H226, > 100 µM (inactive); in the assay with SK-MEL-2, > 100 µM (inactive); with HCC 2998, > 100 µM (inactive); with SF-539, > 100 µM (inactive). The GI50 is > 47.2 µM (inactive) in the assay on K562; > 100 µM (inactive) in the assay with KM12; > 54.5 µM (inactive) in the assay on RPMI-8226; > 100 µM (inactive) in the assay with SK-MEL-5; > 100 µM (inactive) in the assay on A549; > 75.5 µM (inactive) with HCT-116. For the same compound, the results for the GI50 in the assay on SNB-19, in the assay on SNB-75 and with OVCAR-5 were > 100 µM (inactive), > 86.9 µM (inactive) and > 100 µM (inactive), respectively.
On to `COCN1C(=O)C2CC(/C=C/C(N)=O)=CN2C(=O)c2ccccc21` (centres undefined), for which the GI50 in the assay with SW-620, with NCI-H226, in the assay on HCC 2998, with SF-539, in the assay on K562 and in the assay with KM12 was > 100 µM (inactive) each time. Besides, the GI50 in the assay on RPMI-8226, in the assay on SK-MEL-5, in the assay on A549, with HCT-116, in the assay on SNB-19 and with SNB-75 was > 100 µM (inactive) in each case. Also, in the assay on RXF 393, the GI50 is > 100 µM (inactive).
Take `Cc1ccc(C(=O)O)cc1NC(=O)c1cc(/C=C/c2ccccc2)[nH]c(=S)n1`: the GI50 is over 45 µM in the assay on HCT-15; > 28.9 µM (inactive) in the assay on SW-620; > 100 µM (inactive) in the assay with NCI-H226; > 100 µM (inactive) in the assay with HCC 2998; > 100 µM (inactive) in the assay on SF-539; > 54.8 µM (inactive) in the assay with K562. The GI50 in the assay on KM12 was > 100 µM (inactive); in the assay on RPMI-8226, > 44.1 µM (inactive); with SK-MEL-5, > 100 µM (inactive); in the assay on A549, > 65.8 µM (inactive); in the assay with HCT-116, > 37.8 µM (inactive); in the assay on SNB-19 it was > 100 µM (inactive). In addition, the GI50 in the assay with SNB-75, with RXF 393 and in the assay on OVCAR-5 was > 100 µM (inactive) each time.
Take `N#Cc1cccc(-n2[nH]c(=O)ccc2=O)c1`: the GI50 in the assay with HCT-15 was over 100 µM; in the assay with SW-620, > 100 µM (inactive); with NCI-H226 it was > 100 µM (inactive); in the assay with SK-MEL-2, > 100 µM (inactive); in the assay on HCC 2998, > 100 µM (inactive); with SF-539 it was > 100 µM (inactive). Also, the GI50 in the assay with K562, in the assay with KM12, in the assay on RPMI-8226, in the assay with SK-MEL-5, with A549 and in the assay with HCT-116 was > 100 µM (inactive) throughout. The figures for the GI50 in the assay with SNB-19, in the assay with SNB-75 and with OVCAR-5 were > 100 µM (inactive), 59.7 µM (inactive) and > 100 µM (inactive), respectively.
`COc1ccc(-c2cc(C(=O)Nc3ccc(C)c(C)c3)nc(NC#N)n2)cc1`: the GI50 is over 100 µM with HCT-15; > 100 µM (inactive) in the assay with SW-620; > 100 µM (inactive) in the assay on SK-MEL-2; > 100 µM (inactive) in the assay with SF-539; > 100 µM (inactive) in the assay on K562; > 100 µM (inactive) with KM12. The GI50 in the assay with RPMI-8226, with SK-MEL-5, in the assay on A549, in the assay on HCT-116, in the assay with SNB-19 and in the assay on SNB-75 was > 100 µM (inactive) throughout. Also, the GI50 in the assay on RXF 393 and in the assay with OVCAR-5 was > 100 µM (inactive) throughout.
With `C/C(=N\[N+](C)(C)C)C(c1ccccc1)C1(c2ccccc2)C(c2ccccc2)=C1c1ccccc1` (centres undefined), the GI50 in the assay with HCT-15 is 36.9 µM; with SW-620, > 100 µM (inactive); with NCI-H226 it was 19.4 µM (inactive); in the assay on SK-MEL-2 it was > 100 µM (inactive); with HCC 2998 it was > 100 µM (inactive); in the assay with SF-539 it was 37.5 µM (inactive). Further, the GI50 in the assay on K562, with KM12, in the assay on RPMI-8226, in the assay on SK-MEL-5, in the assay on A549 and in the assay with HCT-116 was > 100 µM (inactive) in each case. The GI50 with SNB-19 is > 100 µM (inactive); in the assay with RXF 393 it was 22 µM (inactive); with OVCAR-5, > 100 µM (inactive).
With `CC1=NN(C(=O)c2ccc(Cl)cc2)C(=O)/C1=C/c1cccc(O)c1`, the GI50 was over 100 µM in the assay on HCT-15; > 100 µM (inactive) in the assay on SW-620; > 100 µM (inactive) with NCI-H226; > 100 µM (inactive) in the assay with SK-MEL-2; > 100 µM (inactive) with HCC 2998; > 100 µM (inactive) in the assay with SF-539. Further, the GI50 with K562, with KM12, with RPMI-8226, in the assay on SK-MEL-5, with A549 and with HCT-116 was > 100 µM (inactive) each time. Moreover, the GI50 in the assay on SNB-19, in the assay with RXF 393 and with OVCAR-5 was > 100 µM (inactive) throughout.
`N#CC(NNC(=O)c1ccccc1O)c1cccc(O)c1` (centres undefined): the GI50 with HCT-15 is 5.31 µM; with SW-620, 30.1 µM (inactive); in the assay with NCI-H226, 11.5 µM (inactive); in the assay with SK-MEL-2, 5.7 µM (inactive); in the assay with SF-539, 2.93 µM (inactive); in the assay on K562 it was 2.31 µM (inactive). Also, the GI50 in the assay with KM12 is 4.52 µM (inactive); with RPMI-8226 it was > 100 µM (inactive); in the assay with SK-MEL-5, 18.2 µM (inactive); in the assay on A549, 2.21 µM (inactive); in the assay on HCT-116 it was 3.26 µM (inactive); with SNB-75, 1.7 µM (inactive). In addition, the GI50 with RXF 393 is 1.78 µM (inactive); with OVCAR-5, 54.7 µM (inactive).
Regarding `COc1cc2nncc(Sc3cnnc4ccccc34)c2cc1OC`, the GI50 in the assay with HCT-15 is 24.7 µM; in the assay with SW-620, 16.6 µM (inactive); with NCI-H226 it was 23.7 µM (inactive); in the assay on SK-MEL-2, 16.7 µM (inactive); with HCC 2998, 17.6 µM (inactive); with SF-539, 21 µM (inactive). Moreover, the GI50 in the assay on K562 was 26 µM (inactive); with KM12, 18.9 µM (inactive); with RPMI-8226 it was 16.9 µM (inactive); in the assay on SK-MEL-5, 14.2 µM (inactive); in the assay on A549 it was 25.5 µM (inactive); with SNB-19 it was 19.8 µM (inactive). For the same compound, the GI50 in the assay on OVCAR-5 is 27 µM (inactive).
For `Cc1oc2c(C)c3oc(=O)cc(C)c3cc2c1CNC(=O)[C@@H]1OCCOCCOCCOCCOCCOC1C(=O)O` (some centres undefined), the 50% growth inhibitory concentration (GI50) is over 100 µM with HCT-15; > 100 µM (inactive) in the assay on SW-620; > 100 µM (inactive) in the assay with NCI-H226; > 100 µM (inactive) in the assay with HCC 2998; > 100 µM (inactive) in the assay with SF-539; > 100 µM (inactive) in the assay on K562. Besides, the GI50 in the assay with KM12, in the assay with RPMI-8226, in the assay with SK-MEL-5, in the assay on A549, with HCT-116 and in the assay with SNB-19 was > 100 µM (inactive) throughout. In addition, the GI50 in the assay with SNB-75, in the assay on RXF 393 and in the assay on OVCAR-5 was > 100 µM (inactive) throughout.
Turning to `CCN(CC)CCOC(c1ccccc1)c1ccccc1.CCOC(=O)Nc1ccc(S(=O)(=O)NCCCl)cc1.CCOC(=O)Nc1ccc(S(=O)(=O)NCCCl)cc1.Nc1ccc(C(=O)O)c(O)c1`, the concentration for 50% growth inhibition (GI50) with HCT-15 was over 100 µM; with SW-620, > 100 µM (inactive); in the assay with NCI-H226 it was > 100 µM (inactive); in the assay on SK-MEL-2, > 100 µM (inactive); in the assay on HCC 2998, > 100 µM (inactive); in the assay on SF-539, > 100 µM (inactive). Moreover, the GI50 in the assay on K562, with KM12, with SK-MEL-5, in the assay with A549, with HCT-116 and in the assay on SNB-19 was > 100 µM (inactive) in each case. In addition, the GI50 with SNB-75, in the assay on RXF 393 and in the assay with OVCAR-5 was > 100 µM (inactive) throughout.
For `CCN(CC)CC1c2ccccc2C(CNc2ccccc2)N1C` (centres undefined), the GI50 with HCT-15 is over 100 µM; with SW-620, > 100 µM (inactive); with SK-MEL-2 it was > 100 µM (inactive); with HCC 2998, > 100 µM (inactive); in the assay with K562, 57.8 µM (inactive); in the assay with KM12 it was > 100 µM (inactive). In addition, the GI50 was 80.7 µM (inactive) in the assay on RPMI-8226; > 100 µM (inactive) in the assay on SK-MEL-5; > 100 µM (inactive) in the assay on A549; > 100 µM (inactive) with SNB-19; 49.3 µM (inactive) with SNB-75; > 100 µM (inactive) in the assay on RXF 393. Also, the GI50 in the assay with OVCAR-5 is > 100 µM (inactive).
Take `Cn1cc(NC(=O)c2cc(NC(=O)CCCCCCC(=O)Nc3cc(C(=O)Nc4cc(C(=O)NCCC(=N)N)n(C)c4)n(C)c3)cn2C)cc1C(=O)NCCC(=N)N`: the GI50 is 32 µM in the assay with HCT-15; 29.7 µM (inactive) in the assay on SW-620; 10.7 µM (inactive) with HCC 2998; 14.1 µM (inactive) in the assay with SF-539; 5.35 µM (inactive) in the assay on K562; 2.92 µM (inactive) with KM12. In addition, the GI50 was 1.92 µM (inactive) in the assay on SK-MEL-5; 7.29 µM (inactive) with A549; 8.53 µM (inactive) with HCT-116; 29.2 µM (inactive) in the assay on SNB-19; 10.1 µM (inactive) in the assay with SNB-75; 17 µM (inactive) in the assay with RXF 393. In addition, in the assay with OVCAR-5, the GI50 is > 100 µM (inactive).
